Results on five compounds are retold here after ChEMBL document CHEMBL4376876 (J Med Chem, 2020).

A value given as a limit tells only on which side of the number the result lay.

For this assay, the system named is Mycobacterium tuberculosis. Nature of the assay: Resistance factor, ratio of MIC for antimycobacterial activity against Mycobacterium tuberculosis H37Rv over expressing InhA to MIC for antimycobacterial activity against Mycobacterium tuberculosis H37Rv transfected with pMV261 empty vector. It is filed as functional.
Take `CC(C)[C@H]1OC(=O)[C@H](C)[C@H](O)[C@H](Cc2cccnc2)NC(=O)[C@@H](NC(=O)c2ncccc2O)[C@@H](C)OC1=O`: the Ratio amounted to 8. On to `CC[C@H]1OC(=O)[C@H](C)[C@H](O)[C@H](Cc2cccnc2)NC(=O)[C@@H](NC(=O)c2ncccc2O)[C@@H](C)OC1=O`, for which the Ratio is more than 4. Then `C[C@H]1OC(=O)[C@@H](Cc2ccccc2)OC(=O)[C@H](C)[C@H](O)[C@H](Cc2cccnc2)NC(=O)[C@H]1NC(=O)c1ncccc1O`, with more than 4; and `CC[C@H](C)[C@H]1OC(=O)[C@H](C)[C@H](O)[C@H](Cc2cccnc2)NC(=O)[C@@H](NC(=O)c2ncccc2O)[C@@H](C)OC1=O`, with 1; and `NNC(=O)c1ccncc1` [ISONIAZID], with 31.
